This is an account of results in ChEMBL document CHEMBL1130642, “Conformationally constrained NO synthase inhibitors: rigid analogs of L-N-iminoethylornithine” (Bioorg Med Chem Lett, 1998).

One may read the IC50 as the concentration needed to halve the response being measured. A higher IC50 goes with weaker potency in that assay.

The target of the assay is T1, Nitric oxide synthase, inducible (Mus musculus, UniProt P29477).
T1 sequence (P29477 whole entry): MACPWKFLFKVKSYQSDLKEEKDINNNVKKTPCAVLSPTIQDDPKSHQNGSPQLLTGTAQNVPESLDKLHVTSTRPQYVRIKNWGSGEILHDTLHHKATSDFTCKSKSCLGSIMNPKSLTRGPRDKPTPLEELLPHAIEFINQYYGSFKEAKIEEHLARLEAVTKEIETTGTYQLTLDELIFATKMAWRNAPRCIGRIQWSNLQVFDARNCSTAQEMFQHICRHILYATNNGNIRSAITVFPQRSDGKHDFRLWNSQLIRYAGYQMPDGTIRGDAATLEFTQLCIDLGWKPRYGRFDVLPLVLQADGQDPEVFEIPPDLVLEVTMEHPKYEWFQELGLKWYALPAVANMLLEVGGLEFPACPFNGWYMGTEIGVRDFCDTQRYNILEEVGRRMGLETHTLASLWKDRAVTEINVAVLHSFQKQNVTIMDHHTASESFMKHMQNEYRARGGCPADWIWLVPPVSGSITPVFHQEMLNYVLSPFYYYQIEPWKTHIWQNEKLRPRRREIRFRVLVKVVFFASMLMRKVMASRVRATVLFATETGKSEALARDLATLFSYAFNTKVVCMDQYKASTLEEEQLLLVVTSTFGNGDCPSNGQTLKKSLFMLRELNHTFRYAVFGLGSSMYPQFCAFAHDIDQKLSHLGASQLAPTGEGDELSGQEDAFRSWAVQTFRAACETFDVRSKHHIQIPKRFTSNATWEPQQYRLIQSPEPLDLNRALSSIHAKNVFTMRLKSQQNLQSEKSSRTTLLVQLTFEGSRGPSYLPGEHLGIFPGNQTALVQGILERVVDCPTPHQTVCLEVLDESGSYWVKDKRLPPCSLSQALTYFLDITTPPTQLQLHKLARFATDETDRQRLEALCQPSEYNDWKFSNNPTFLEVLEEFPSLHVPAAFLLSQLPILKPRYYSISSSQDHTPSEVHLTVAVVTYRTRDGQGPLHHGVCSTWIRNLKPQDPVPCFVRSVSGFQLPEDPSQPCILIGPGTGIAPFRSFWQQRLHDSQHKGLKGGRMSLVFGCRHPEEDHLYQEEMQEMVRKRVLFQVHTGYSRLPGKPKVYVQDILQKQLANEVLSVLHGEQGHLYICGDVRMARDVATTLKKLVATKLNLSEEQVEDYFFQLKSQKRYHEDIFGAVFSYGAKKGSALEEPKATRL
Description: Compound was evaluated for inhibitory activity against iNOS obtained from RAW 264.7 cells. The assay is classed as cell-based.

Where only a bound is given, the exact number is not on record here.

Molecule `COC(=O)[C@@H](N)[C@H]1CC[C@H](/N=C(/C)N)C1` displayed an IC50 of 50 µM. In other words, the double-digit micromolar range.
The figure for `COC(=O)[C@@H](N)[C@@H]1CC[C@H](/N=C(/C)N)C1` is more than 200 µM.
The value for `CC(=N)N1CC[C@@H](C[C@H](N)C(=O)O)C1` was more than 200 µM; that for `NC1=NC[C@H](C[C@H](N)C(=O)O)C1` was 25 µM.
The value for `CC(=N)NCCC[C@H](N)C(=O)O` [L-NIO] was 9 µM; that for `NC1=NC[C@@H](C[C@H](N)C(=O)O)C1` was 36 µM.
Consider `COC(=O)[C@@H](N)[C@H]1CC[C@@H](N=C(C)N)C1`, for which the IC50 was determined as 47 µM. This IC50 and that of the molecule before are within 1.5-fold of each other.
`COC(=O)[C@@H](N)[C@@H]1CC[C@@H](N=C(C)N)C1` showed an IC50 of more than 200 µM.
The value for `CC(=N)N1CC[C@H](C[C@H](N)C(=O)O)C1` was 40 µM.
